Earlier results, collected in patent US6057161A (priority 1997, dated 2000).
Where two headings read alike, the source gives them in different places.

Row | Structure (SMILES) | metabolism, accumulation or excretion (in words) (body) | time found in the urine after administration of heroin (in vivo) | also measured
1 | CN1[C@H]2CC[C@@H]1[C@@H](C(=O)O)[C@@H](OC(=O)c1ccccc1)C2 [Benzoylecgonine] | can be detected in the urine for a longer period of time than ecgonine methyl ester |  | 
2 | COC(=O)[C@H]1[C@@H](OC(=O)c2ccccc2)C[C@@H]2CC[C@H]1N2C [Cocaine] |  |  | metabolism, accumulation or excretion (in words) (in vivo): rapidly metabolized in the body
3 | CN1CC[C@]23c4c5ccc(O[C@@H]6O[C@H](C(=O)O)[C@@H](O)[C@H](O)[C@H]6O)c4O[C@H]2[C@@H](O)C=C[C@H]3[C@H]1C5 [Morphine-3-glucoronide, morphine-3-glucuronide] |  | up to 40 hours | 
4 | CN1CC[C@]23c4c5ccc(O)c4O[C@H]2[C@@H](O)C=C[C@H]3[C@H]1C5 [Morphine] |  | up to 40 hours | 
5 | CCCCCc1cc(O)c2c(c1)OC(C)(C)[C@@H]1CCC(C(=O)O)=C[C@@H]21 [THC-COOH] | excreted in the urine as a glucuronic acid conjugate at detectable levels |  | 
